These are literature values, as cited in patent US20090252791A1, “PHARMACEUTICAL COMPOSITIONS COMPRISING A TRIPTAN AND A NONSTEROIDAL ANTI-INFLAMMATORY DRUG” (priority 2008, published 2009).

The structures appear in SMILES notation.

Take `CNS(=O)(=O)Cc1ccc2[nH]cc(CCN(C)C)c2c1` [Sumatriptan, 3-[2-(dimethylamino)ethyl]-N-methyl-1H-indole-5-methanesulfonamide]: the “Solubility in water and in saline” value is given as “readily soluble”.
